| Structure (SMILES) | logP |
| --- | --- |
| Oc1ccccc1C=NN=c1ccn(Cc2c(Cl)cccc2Cl)cc1 | 3.3 |
| Cc1cccc(C)c1C=NN=c1ccn(Cc2c(Cl)cccc2Cl)cc1 | 3.3 |
| Cc1cccc(C)c1C=NN=c1ccn(Cc2ccccc2)cc1 | 4 |
| Brc1ccc(C=NN=c2ccn(CCCc3ccccc3)cc2)cc1 | 3.9 |
| Fc1ccc(Cn2ccc(=NN=Cc3ccc(Cl)cc3)cc2)cc1 | 3.8 |
| Clc1ccccc1C=NN=c1ccn(Cc2ccccc2)cc1 | 3.8 |
| Cc1ccc(C=NN=c2ccn(CC=Cc3ccccc3)cc2)cc1 | 4 |
| COc1ccc(C=NN=c2ccn(CCCc3ccccc3)cc2)cc1 | 3.4 |
| C(=NN=c1ccn(CCCCCc2ccccc2)cc1)c1cccc2ccccc12 | 4.4 |
| C(=NN=c1ccn(CCc2ccccc2)cc1)c1c2ccccc2cc2ccccc12 | 4.4 |
| Clc1cccc(Cl)c1C=NN=c1ccn(CCc2ccccc2)cc1 | 4 |
| Clc1ccc(C=NN=c2ccn(Cc3ccccc3)cc2)cc1 | 3.8 |
| Clc1ccccc1C=NN=c1ccn(CCc2ccccc2)cc1 | 3.9 |
| O=[N+]([O-])c1ccc(C=NN=c2ccn(CCCCc3ccccc3)cc2)cc1 | 3.9 |
| Fc1ccc(Br)cc1Cn1ccc(=NN=Cc2ccc(Cl)cc2)cc1 | 4 |
| Clc1cccc(Cl)c1Cn1ccc(=NN=Cc2cccc3ccccc23)cc1 | 4.3 |
| Clc1cccc(Cl)c1C=NN=c1ccn(Cc2ccccc2)cc1 | 3.9 |
| COc1ccc(C=NN=c2ccn(Cc3c(Cl)cccc3Cl)cc2)cc1 | 3.4 |
| COc1ccc(C=NN=c2ccn(CC=Cc3ccccc3)cc2)cc1 | 3.4 |
| Cc1ccc(C=NN=c2ccn(CCCN3C(=O)c4ccccc4C3=O)cc2)cc1 | 3.6 |
| COc1ccccc1C=NN=c1ccn(Cc2ccccc2)cc1 | 3.3 |
| O=[N+]([O-])c1ccc(C=NN=c2ccn(Cc3c(Cl)cccc3Cl)cc2)cc1 | 4 |
| Brc1ccc(C=NN=c2ccn(Cc3ccccc3)cc2)cc1 | 3.9 |
| Cc1cccc(C=NN=c2ccn(CCCc3ccccc3)cc2)c1 | 4 |
| Cc1cccc(C)c1C=NN=c1ccn(CCCc2ccccc2)cc1 | 3.3 |
| COc1ccccc1C=NN=c1ccn(CCc2ccccc2)cc1 | 3.4 |

| Structure (SMILES) | logP |
| --- | --- |
| COc1ccc(C=NN=c2ccn(CCCCCc3ccccc3)cc2)cc1 | 3.5 |
| Cc1ccc(C=NN=c2ccn(CCCc3ccccc3)cc2)cc1 | 4 |
| C(=NN=c1ccn(CCCCc2ccccc2)cc1)c1c2ccccc2cc2ccccc12 | 4.4 |
| COc1ccccc1C=NN=c1ccn(Cc2ccc3ccccc3c2)cc1 | 3.4 |
| COc1cccc(OC)c1C=NN=c1ccn(CCCc2ccccc2)cc1 | 3.4 |
| Clc1ccc(C=NN=c2ccn(CC=Cc3ccccc3)cc2)cc1 | 3.9 |
| C(CCc1ccccc1)=NN=c1ccn(CCCc2ccccc2)cc1 | 4 |
| Clc1cccc(Cl)c1Cn1ccc(=NN=Cc2c3ccccc3cc3ccccc23)cc1 | 4.4 |
| Cc1cccc(C=NN=c2ccn(CCCN3C(=O)c4ccccc4C3=O)cc2)c1 | 3.8 |
| Cc1ccc(C)c(-n2ccc(=NN=Cc3ccc(Cl)cc3)cc2)c1 | 4 |
| Fc1ccc(C=NN=c2ccn(Cc3ccccc3)cc2)cc1 | 3.7 |
| Cc1ccc(C=NN=c2ccn(Cc3c(Cl)cccc3Cl)cc2)cc1 | 3.9 |
| O=[N+]([O-])c1ccc(C=NN=c2ccn(CC=Cc3ccccc3)cc2)cc1 | 3.8 |
| Fc1cc(Br)ccc1Cn1ccc(=NN=CCCc2ccccc2)cc1 | 3.9 |
| Clc1cccc(Cl)c1C=NN=c1ccn(CCCCCc2ccccc2)cc1 | 4 |
| Cc1cccc(C)c1C=NN=c1ccn(CCCCc2ccccc2)cc1 | 3.3 |
| Cc1ccccc1C=NN=c1ccn(Cc2c(Cl)cccc2Cl)cc1 | 3.9 |
| Brc1ccccc1Cn1ccc(=NN=CCCc2ccccc2)cc1 | 3.9 |
| Fc1cccc(C=NN=c2ccn(CCCc3ccccc3)cc2)c1 | 3.8 |
| Fc1ccc(C=NN=c2ccn(CCCc3ccccc3)cc2)cc1 | 3.8 |
| C(Cc1ccccc1)=NN=c1ccn(CCCc2ccccc2)cc1 | 3.9 |
| C(=NN=c1ccn(CCCc2ccccc2)cc1)c1c2ccccc2cc2ccccc12 | 4.4 |
| Clc1cccc(Cl)c1C=NN=c1ccn(Cc2c(Cl)cccc2Cl)cc1 | 4 |
| Cc1ccc(C=NN=c2ccn(CCCCc3ccccc3)cc2)cc1 | 4 |
| C(=NN=c1ccn(CCCCc2ccccc2)cc1)c1cccc2ccccc12 | 4.3 |
| Clc1ccccc1C=NN=c1ccn(Cc2c(Cl)cccc2Cl)cc1 | 3.9 |

| Structure (SMILES) | logP |
| --- | --- |
| COc1ccccc1C=NN=c1ccn(Cc2c(Cl)cccc2Cl)cc1 | 3.4 |
| Cc1ccc(C=NN=c2ccn(CCCCCc3ccccc3)cc2)cc1 | 4.1 |
| Fc1cccc(C=NN=c2ccn(Cc3ccccc3)cc2)c1 | 3.7 |
| O=[N+]([O-])c1ccc(C=NN=c2ccn(Cc3ccccc3)cc2)cc1 | 3.8 |
| C(=NN=c1ccn(Cc2ccccc2)cc1)c1ccc2ccccc2c1 | 4.2 |
| O=[N+]([O-])c1ccc(C=NN=c2ccn(CCc3ccccc3)cc2)cc1 | 3.9 |
| COc1cccc(OC)c1C=NN=c1ccn(Cc2ccccc2)cc1 | 3.3 |
| Oc1ccccc1C=NN=c1ccn(Cc2ccccc2)cc1 | 3.2 |
| Oc1ccccc1C=NN=c1ccn(CCCc2ccccc2)cc1 | 3.3 |
| C(Cc1ccccc1)=NN=c1ccn(Cc2ccccc2)cc1 | 3.9 |
| O=[N+]([O-])c1ccc(C=NN=c2ccn(CCCCCc3ccccc3)cc2)cc1 | 4 |
| Clc1ccc(C=NN=c2ccn(Cc3ccccc3I)cc2)cc1 | 3.9 |
| Clc1ccc(C=NN=c2ccn(CCCc3ccccc3)cc2)cc1 | 3.9 |
| COc1ccc(C=NN=c2ccn(Cc3ccccc3)cc2)cc1 | 3.3 |
| COc1ccccc1C=NN=c1ccn(CC=Cc2ccccc2)cc1 | 3.5 |
| COc1ccc(C=NN=c2ccn(CCCCCN3C(=O)c4ccccc4C3=O)cc2)cc1 | 3.4 |
| Brc1ccc(C=NN=c2ccn(CCCCCc3ccccc3)cc2)cc1 | 4 |
| Cc1cccc(C)c1C=NN=c1ccn(CCCCCc2ccccc2)cc1 | 3.4 |
| Cc1cccc(C)c1C=NN=c1ccn(CCc2ccccc2)cc1 | 3.3 |
| Cc1cccc(Cn2ccc(=NN=CCCc3ccccc3)cc2)c1C | 3.9 |
| O=[N+]([O-])c1ccc(C=NN=c2ccn(CCCc3ccccc3)cc2)cc1 | 3.8 |
| COc1cccc(OC)c1C=NN=c1ccn(CCCCc2ccccc2)cc1 | 3.4 |
| COc1ccc(C=NN=c2ccn(CCCCc3ccccc3)cc2)cc1 | 3.4 |
| Clc1ccc(C=NN=c2ccn(Cc3ccccc3Br)cc2)cc1 | 3.9 |
| Clc1cccc(Cl)c1Cn1ccc(=NN=Cc2ccc(Br)cc2)cc1 | 3.9 |
| COc1ccccc1C=NN=c1ccn(CCCc2ccccc2)cc1 | 3.4 |

| Structure (SMILES) | logP |
| --- | --- |
| C(=NN=c1ccn(Cc2ccc3ccccc3c2)cc1)c1cccc2ccccc12 | 4.4 |
| Clc1cccc(Cl)c1C=NN=c1ccn(CCCCc2ccccc2)cc1 | 4 |
| Fc1ccc(Cn2ccc(=NN=CCCc3ccccc3)cc2)cc1 | 3.9 |
| C(=NN=c1ccn(CCCc2ccccc2)cc1)c1cccc2ccccc12 | 4.3 |
| Fc1cccc(C=NN=c2ccn(Cc3ccccc3Br)cc2)c1 | 3.9 |
| CCCCCCn1ccc(=NN=Cc2ccc(C)cc2)cc1 | 3.8 |
| Clc1ccccc1C=NN=c1ccn(CCCc2ccccc2)cc1 | 3.9 |
| C(=NN=c1ccn(Cc2ccccc2)cc1)c1cccc2ccccc12 | 4.2 |
| Cc1ccccc1C=NN=c1ccn(CCCc2ccccc2)cc1 | 4 |
| COc1ccc(C=NN=c2ccn(CCc3ccccc3)cc2)cc1 | 3.4 |
| COc1cccc(OC)c1C=NN=c1ccn(-c2c(Cl)cccc2Cl)cc1 | 3.4 |
| Cc1ccccc1C=NN=c1ccn(Cc2ccccc2)cc1 | 3.9 |
| O=C1c2ccccc2C(=O)N1CCCn1ccc(=NN=Cc2ccc3ccccc3c2)cc1 | 4.1 |
| C(=NN=c1ccn(Cc2ccccc2)cc1)c1c2ccccc2cc2ccccc12 | 4.3 |
| COc1cccc(OC)c1C=NN=c1ccn(CCc2ccccc2)cc1 | 3.4 |
| Brc1ccc(C=NN=c2ccn(CCCCc3ccccc3)cc2)cc1 | 3.9 |
| Cc1ccc(C=NN=c2ccn(Cc3ccccc3)cc2)cc1 | 3.9 |
| Cc1ccc(C=NN=c2ccn(Cc3ccc4ccccc4c3)cc2)cc1 | 4 |
| C(=NN=c1ccn(CCCCCc2ccccc2)cc1)c1c2ccccc2cc2ccccc12 | 4.4 |
| Oc1ccccc1C=NN=c1ccn(CCc2ccccc2)cc1 | 3.3 |
| Cc1ccc(C=NN=c2ccn(CCc3ccccc3)cc2)cc1 | 4 |
| C(=NN=c1ccn(CCCc2ccccc2)cc1)c1ccc2ccccc2c1 | 4.3 |
| COc1cccc(OC)c1C=NN=c1ccn(CCCCCc2ccccc2)cc1 | 3.5 |
| C(=NN=c1ccn(CCc2ccccc2)cc1)c1cccc2ccccc12 | 4.3 |
| C(CCc1ccccc1)=NN=c1ccn(Cc2ccccc2)cc1 | 4 |
